Data published in US10028960B2, “Pyrimidine compounds as JAK kinase inhibitors” (THERAVANCE BIOPHARMA R&D IP, LLC, priority 2016, dated 2018).
Where two headings read alike, the source gives them in different places.

Tests used:
JAK1 = JAK1 (Homo sapiens (Human), UniProt P23458); assay: LanthaScreen JAK biochemical assay, JAK1
Protocol: (§1) A panel of four LanthaScreen JAK biochemical assays (JAK1, 2, 3 and Tyk2) were carried in a common kinase reaction buffer (50 mM HEPES, pH 7.5, 0.01% Brij-35, 10 mM MgCl2, and 1 mM EGTA). Recombinant GST-tagged JAK enzymes and a GFP-tagged STAT1 peptide substrate were obtained from Life Technologies.

JAK2 = JAK2 (Homo sapiens (Human), UniProt O60674); assay: LanthaScreen JAK biochemical assay, JAK2
Protocol: as §1

JAK3 = JAK3 (Homo sapiens (Human), UniProt P52333); assay: LanthaScreen JAK biochemical assay, JAK3
Protocol: as §1

Tyk2 = Tyk2 (Homo sapiens (Human), UniProt P29597); assay: LanthaScreen JAK biochemical assay, Tyk2; details: read-out: Tyk 2 (pKi) (converted)
Protocol: as §1

[1] = tested on: IL-13 induced STAT6 phosphorylation in HT-29 human colorectal adenocarcinoma cells; assay: Cellular JAK potency assay: inhibition of IL-13 induced STAT6 phosphorylation; assay type: cell-based; details: Homo sapiens; IL-13 induced STAT6 phosphorylation, HT-29 cells; read-out: HT-29 (pIC50) (converted)
[2] = Determination of absorption in cannulated rats; assay type: in vivo, Sprague Dawley rats; details: rat; for bioavailability: Sprague Dawley, plasma (jugular vein), oral vs IV, read-out: oral bioavailability (F %); for absorption at the portal vein (Fa %): oral
Protocol: Oral bioavailability (F %), fraction absorbed (Fa %) and fraction escaping hepatic clearance (Fh %) were determined in Sprague Dawley rats from the following two studies:
(1) Pharmacokinetics in rats following an IV dose of test compound: Following IV dosing, plasma samples were typically collected from 0-6 hr. Drug levels were determined using an LC-MS-MS method. The resulting drug levels were used to compute the IV pharmacokinetic parameters: AUC IV and Dose IV.
(2) Rats that have been cannulated in their portal vein (PV) and also in their jugular vein (JV) were dosed orally with test compound. Following oral dosing, plasma samples were typically collected from 0-6 hr from both the portal vein and the jugular vein. Drug levels were determined using an LC-MS-MS method. The resulting drug levels were used to compute the following pharmacokinetic parameters: AUC PO PV, AUC PO JV, and Dose PO.
Using data derived from the above studies, the oral bioavailability F %, and the quantities Fa % and Fh % were calculated from the following formulas: F %=(AUC PO JV/AUC IV)*(Dose IV/Dose PO)*100 Fa %=(AUC PO PV/AUC IV)*(Dose IV/Dose PO)*100 Fh %=AUC PO JV/AUC PO PV
AUC PO JV=Area under the curve following oral dose and plasma collected from the jugular vein
AUC PO PV=Area under the curve following oral dose and plasma collected from the portal vein
AUC IV=Area under the curve following an intravenous dose
Dose IV=Intravenous Dose in mg/kg
Dose PO=Oral Dose in mg/kg

[3] = tested on: oxazolone-induced colitis; assay: Mouse model of oxazolone-induced colitis; assay type: in vivo, BALB/C mice; details: mouse, PO, 1, 3, and/or 10 mg/kg BID
Protocol: Oxazolone-induced colitis is an experimental model that has a histological resemblance to human ulcerative colitis (Heller et al. […], 2002, 17, 629-638). Adult BALB/C mice from Harlan were used in the assay. On day 1, animals were lightly anesthetized with isoflurane and the hairs between the shoulder were carefully removed before oxazolone (4%, 150 μL, 4:1 acetone: olive oil formulation) or vehicle solution was slowly applied for skin sensitization. Seven days after skin sensitization, the mice were fasted overnight, anesthetized with isoflurane inhalation, and a 1 mL syringe equipped with a 3.5-F catheter, filled with oxazolone solution, was inserted carefully about 4 cm into the colon of the mouse. Following insertion, 50 μL of the oxazolone solution (1%, 1:1 ethanol:water formulation) was injected very slowly (over 30 sec using an injection pump) into the colon. The catheter was removed and the mice were held vertically (head down) for 2 min to ensure that the entire oxazolone solution remained inside the colon. Drug treatment (PO, BID or TID) or vehicle was initiated a day prior to the oxazolone intrarectal (IR) challenge. Two-day post oxazolone intrarectal challenge, the Disease Activity Index (DAI) was assessed by treatment-blinded experimenters for each mouse according to the criteria score: stool consistency score (0, normal; 2, loose; 4, diarrhea), gross bleeding score (0, absence; 2, blood tinged; 4, presence), and weight loss score (0, none; 1, 1%-5%; 2, 5%-10%; 3, 10%-20%; 4, more than 20%); DAI=average of (stool consistency score+gross bleeding score+weight loss score).
Selected compounds of the invention were tested in the assay. Efficacy in the model is evidenced by a decrease in DAI score as compared with the score from vehicle treated animals.

[4] = Dynamic moisture sorption assessment; assay type: physicochemical; details: for weight gain: humidity range of 5% to 90% relative humidity, 25° C.
Protocol: Dynamic moisture sorption (DMS) measurement was performed using a VTI atmospheric microbalance, SGA-100 system (VTI Corp., Hialeah, Fla. 33016). A weighed sample was used and the humidity was lowest possible value (close to 0% RH) at the start of the analysis. The DMS analysis consisted of an initial drying step (0% RH) for 120 minutes, followed by two cycles of sorption and desorption with a scan rate of 5% RH/step over the humidity range of 5% RH to 90% RH. The DMS run was performed isothermally at 25° C.

[5] = tested on: mouse splenic NK, B and T cells; details: in vivo, po
Protocol: Depletion of mouse splenic cells is an experimental model of immunosuppression (Kudlacz et al., Am. J. of Transplantation, 2004, 4, 51-57). The compound of Example 2 was assessed in the mouse splenic cell model following the same treatment paradigm as that used in the oxazolone-induced colitis model (Assay 8).
The compound (1, 10 and 100 mg/kg, BID) and tofacitinib (30 and 60 mg/kg, BID) as a positive control were dosed orally for three days to naïve mice. Spleens were harvested 1 h post last dose and crushed immediately for cell subtype staining. Prior to fixation, fluorophore-labelled antibodies for CD19 (FITC; B cells), CD3e (PE; pan T cells) and DX5 (APC; NK cells) were incubated with splenocyte samples from each animal to allow for simultaneous, multiple subtype % analysis on the flow cytometer. The number of total spleen cells for each animal was measured by Scepter™ 2.0 Handheld Automated Cell Counter.
The absolute number of lymphocyte subtype population (e.g., splenic B, T and NK cells) was calculated from the percentage of each subtype times total spleen cells for each animal. A one way ANOVA, with Dunnett's post hoc test, was used to compare the splenic lymphocytes number of the vehicle and test compound groups. The a level was set at p<0.05. Data were presented as the mean±SEM for each group.

Sequence of JAK3 (P52333 whole entry): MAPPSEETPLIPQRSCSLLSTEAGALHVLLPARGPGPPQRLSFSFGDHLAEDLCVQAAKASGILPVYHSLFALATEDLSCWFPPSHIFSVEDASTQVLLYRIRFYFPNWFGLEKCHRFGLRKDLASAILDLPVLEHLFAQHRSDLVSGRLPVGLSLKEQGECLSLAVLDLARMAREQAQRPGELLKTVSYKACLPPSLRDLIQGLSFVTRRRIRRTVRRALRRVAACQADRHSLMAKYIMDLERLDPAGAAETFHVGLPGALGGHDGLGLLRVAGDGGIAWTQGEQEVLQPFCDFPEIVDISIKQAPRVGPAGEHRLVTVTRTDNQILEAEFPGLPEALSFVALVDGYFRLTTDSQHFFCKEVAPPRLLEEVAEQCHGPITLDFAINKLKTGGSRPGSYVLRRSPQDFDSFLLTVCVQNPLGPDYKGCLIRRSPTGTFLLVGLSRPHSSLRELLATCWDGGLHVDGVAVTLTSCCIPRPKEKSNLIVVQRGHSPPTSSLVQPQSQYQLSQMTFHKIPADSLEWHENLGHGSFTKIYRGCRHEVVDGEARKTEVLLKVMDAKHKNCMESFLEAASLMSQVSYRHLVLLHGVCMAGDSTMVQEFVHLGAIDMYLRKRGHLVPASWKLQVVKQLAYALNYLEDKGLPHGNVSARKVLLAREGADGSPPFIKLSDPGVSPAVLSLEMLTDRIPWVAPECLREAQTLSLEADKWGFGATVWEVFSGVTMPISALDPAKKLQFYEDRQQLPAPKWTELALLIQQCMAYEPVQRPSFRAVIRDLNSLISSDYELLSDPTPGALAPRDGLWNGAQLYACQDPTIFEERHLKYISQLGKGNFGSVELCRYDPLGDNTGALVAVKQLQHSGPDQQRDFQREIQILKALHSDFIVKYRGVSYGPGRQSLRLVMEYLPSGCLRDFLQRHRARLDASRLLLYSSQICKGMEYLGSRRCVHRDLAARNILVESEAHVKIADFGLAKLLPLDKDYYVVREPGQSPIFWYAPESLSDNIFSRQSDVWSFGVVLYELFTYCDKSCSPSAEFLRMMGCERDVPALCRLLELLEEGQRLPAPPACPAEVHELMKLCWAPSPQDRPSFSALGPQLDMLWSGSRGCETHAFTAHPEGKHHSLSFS
Sequence of Tyk2 (P29597 whole entry): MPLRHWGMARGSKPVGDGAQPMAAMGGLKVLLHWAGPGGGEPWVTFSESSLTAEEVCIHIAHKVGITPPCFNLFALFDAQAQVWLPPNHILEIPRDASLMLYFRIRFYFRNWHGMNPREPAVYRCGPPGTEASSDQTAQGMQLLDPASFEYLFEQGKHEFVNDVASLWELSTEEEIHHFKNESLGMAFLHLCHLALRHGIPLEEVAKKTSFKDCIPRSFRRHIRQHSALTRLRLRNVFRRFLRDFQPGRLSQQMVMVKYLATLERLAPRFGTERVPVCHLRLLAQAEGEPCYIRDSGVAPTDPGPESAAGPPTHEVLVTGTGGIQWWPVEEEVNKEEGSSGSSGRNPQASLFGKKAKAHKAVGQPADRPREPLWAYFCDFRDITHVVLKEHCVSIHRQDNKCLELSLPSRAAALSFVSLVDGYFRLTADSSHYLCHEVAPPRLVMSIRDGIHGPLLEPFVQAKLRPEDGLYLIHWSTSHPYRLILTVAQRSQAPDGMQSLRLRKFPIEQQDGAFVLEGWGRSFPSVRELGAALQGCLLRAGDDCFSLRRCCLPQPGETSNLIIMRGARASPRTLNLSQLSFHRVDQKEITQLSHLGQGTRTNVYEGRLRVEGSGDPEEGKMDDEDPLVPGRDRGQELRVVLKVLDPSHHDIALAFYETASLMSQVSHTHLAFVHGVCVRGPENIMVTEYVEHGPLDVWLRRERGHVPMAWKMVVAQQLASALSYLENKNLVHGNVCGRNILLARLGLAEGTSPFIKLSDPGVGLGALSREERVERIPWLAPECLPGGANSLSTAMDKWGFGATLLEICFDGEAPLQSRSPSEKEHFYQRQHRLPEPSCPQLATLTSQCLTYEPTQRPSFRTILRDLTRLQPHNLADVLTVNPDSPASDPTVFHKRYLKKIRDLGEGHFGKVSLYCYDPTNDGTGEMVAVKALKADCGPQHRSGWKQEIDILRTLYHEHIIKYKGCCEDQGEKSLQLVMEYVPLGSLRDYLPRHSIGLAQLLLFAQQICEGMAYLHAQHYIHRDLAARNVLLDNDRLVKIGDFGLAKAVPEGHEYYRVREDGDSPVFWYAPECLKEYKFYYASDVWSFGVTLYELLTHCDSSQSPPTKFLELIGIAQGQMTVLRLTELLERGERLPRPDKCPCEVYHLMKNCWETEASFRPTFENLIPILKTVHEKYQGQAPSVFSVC
Sequence of JAK1 (P23458 whole entry): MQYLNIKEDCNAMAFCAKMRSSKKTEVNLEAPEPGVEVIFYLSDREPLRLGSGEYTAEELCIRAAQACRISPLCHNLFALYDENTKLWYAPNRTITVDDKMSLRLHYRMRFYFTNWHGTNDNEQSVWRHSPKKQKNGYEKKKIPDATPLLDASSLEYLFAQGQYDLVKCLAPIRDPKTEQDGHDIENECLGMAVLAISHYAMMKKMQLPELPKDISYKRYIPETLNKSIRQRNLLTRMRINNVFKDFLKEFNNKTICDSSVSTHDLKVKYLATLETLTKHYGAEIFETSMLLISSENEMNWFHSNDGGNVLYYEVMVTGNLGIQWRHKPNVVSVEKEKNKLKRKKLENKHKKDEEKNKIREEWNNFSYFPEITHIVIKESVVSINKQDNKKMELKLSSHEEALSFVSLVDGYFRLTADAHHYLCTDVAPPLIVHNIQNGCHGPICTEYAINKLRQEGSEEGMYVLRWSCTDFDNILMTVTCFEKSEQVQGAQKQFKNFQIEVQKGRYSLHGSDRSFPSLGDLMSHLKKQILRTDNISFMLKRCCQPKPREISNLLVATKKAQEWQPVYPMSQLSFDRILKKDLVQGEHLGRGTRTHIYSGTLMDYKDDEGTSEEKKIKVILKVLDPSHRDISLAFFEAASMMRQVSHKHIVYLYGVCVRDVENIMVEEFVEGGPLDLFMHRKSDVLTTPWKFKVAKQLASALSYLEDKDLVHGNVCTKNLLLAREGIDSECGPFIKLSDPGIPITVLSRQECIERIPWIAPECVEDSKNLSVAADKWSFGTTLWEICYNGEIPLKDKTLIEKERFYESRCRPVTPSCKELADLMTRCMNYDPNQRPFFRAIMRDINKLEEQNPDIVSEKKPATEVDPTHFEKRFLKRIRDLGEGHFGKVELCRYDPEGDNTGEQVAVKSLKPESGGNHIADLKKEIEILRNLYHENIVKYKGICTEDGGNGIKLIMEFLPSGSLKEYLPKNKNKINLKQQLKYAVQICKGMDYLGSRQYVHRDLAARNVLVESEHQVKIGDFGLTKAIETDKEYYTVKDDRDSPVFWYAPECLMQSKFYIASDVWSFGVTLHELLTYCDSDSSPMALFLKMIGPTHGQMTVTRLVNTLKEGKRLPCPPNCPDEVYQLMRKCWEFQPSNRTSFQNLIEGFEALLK
Sequence of JAK2 (O60674 whole entry): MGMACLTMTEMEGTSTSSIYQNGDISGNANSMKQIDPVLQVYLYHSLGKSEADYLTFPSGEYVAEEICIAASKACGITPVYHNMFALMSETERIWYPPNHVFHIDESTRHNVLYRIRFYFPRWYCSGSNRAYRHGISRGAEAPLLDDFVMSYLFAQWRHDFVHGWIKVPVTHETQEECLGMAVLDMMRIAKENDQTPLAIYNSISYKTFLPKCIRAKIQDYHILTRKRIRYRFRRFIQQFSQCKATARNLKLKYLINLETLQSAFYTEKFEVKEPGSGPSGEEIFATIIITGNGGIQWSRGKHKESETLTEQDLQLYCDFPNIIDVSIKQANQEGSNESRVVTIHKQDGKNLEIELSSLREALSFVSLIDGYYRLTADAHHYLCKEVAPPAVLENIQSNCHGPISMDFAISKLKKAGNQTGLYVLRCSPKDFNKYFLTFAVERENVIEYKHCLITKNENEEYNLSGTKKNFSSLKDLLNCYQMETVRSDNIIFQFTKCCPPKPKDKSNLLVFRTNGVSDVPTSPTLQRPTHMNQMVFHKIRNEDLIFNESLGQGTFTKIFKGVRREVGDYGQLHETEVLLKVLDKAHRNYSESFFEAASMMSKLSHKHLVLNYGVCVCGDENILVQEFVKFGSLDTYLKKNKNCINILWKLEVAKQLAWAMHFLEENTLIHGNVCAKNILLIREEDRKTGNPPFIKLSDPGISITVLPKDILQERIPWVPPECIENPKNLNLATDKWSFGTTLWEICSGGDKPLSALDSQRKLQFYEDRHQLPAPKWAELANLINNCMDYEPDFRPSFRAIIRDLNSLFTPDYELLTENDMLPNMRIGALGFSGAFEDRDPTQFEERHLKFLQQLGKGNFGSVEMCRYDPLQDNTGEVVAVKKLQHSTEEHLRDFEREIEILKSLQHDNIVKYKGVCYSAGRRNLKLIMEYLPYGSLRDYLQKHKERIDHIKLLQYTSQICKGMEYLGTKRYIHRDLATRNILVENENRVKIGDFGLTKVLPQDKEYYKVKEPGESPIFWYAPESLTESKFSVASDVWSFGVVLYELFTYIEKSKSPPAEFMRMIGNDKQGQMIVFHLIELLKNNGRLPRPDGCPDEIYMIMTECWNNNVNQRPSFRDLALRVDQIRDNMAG

SMILES	JAK 2 (pKi) (JAK2)	Ki (Tyk2) [nM]	IC50 [1] [nM]	bioavailability [2] [%]	absorption at the portal vein (Fa %) [2]	decrease in DAI score as compared with vehicle treated animals [3]	weight gain [4]	also measured
COCCS(=O)(=O)N1[C@@H]2CCC[C@H]1C[C@H](N(C)c1nc(Nc3cc(CO)[nH]n3)cc(OC)n1)C2 [Example 4, (3-((6-methoxy-2-(((1R,3s,5S)-9-((2-methoxyethyl)sulfonyl)-9-azabicyclo[3.3.1]nonan-3-yl)(methyl)amino)pyrimidin-4-yl)amino)-1H-pyrazol-5-yl)methanol]	A (A represents a pKi value≥10 (Ki≤0.1 nM))	0.1 to 1	31.6 to 200	< 5	greater than 40%	statistically significant decrease		Ki (JAK1; read-out: JAK 1 (pKi) (converted)): 0.1 to 1 nM; Ki (JAK3; read-out: JAK 3 (pKi) (converted)): 1 to 10 nM
COc1cc(Nc2cc(CO)[nH]n2)nc(N(C)[C@@H]2C[C@H]3CC[C@@H](C2)N3S(=O)(=O)N2CC(C#N)C2)n1 [Example 1, 1-(((1R,3s,5S)-3-((4-((5-(Hydroxymethyl)-1H-pyrazol-3-yl)amino)-6-methoxypyrimidin-2-yl)(methyl)amino)-8-azabicyclo[3.2.1]octan-8-yl)sulfonyl)azetidine-3-carbonitrile]	A (A represents a pKi value≥10 (Ki≤0.1 nM))	0.1 to 1	31.6 to 200	< 5	less than 25%	did not exhibit a statistically significant decrease		JAK 1 (pKi) (JAK1): A (A represents a pKi value≥10 (Ki≤0.1 nM)); Ki (JAK3): 1 to 10 nM
COc1cc(Nc2cc(CO)[nH]n2)nc(N(C)[C@@H]2C[C@H]3CCC[C@@H](C2)N3S(=O)(=O)N2CC(C#N)C2)n1 [Form I, 1-(((1R,3s,5S)-3-((4-((5-(hydroxymethyl)-1H-pyrazol-3-yl)amino)-6-methoxypyrimidin-2-yl)(methyl)amino)-9-azabicyclo[3.3.1]nonan-9-yl)sulfonyl)azetidine-3-carbonitrile]							less than 0.4%	
C[C@@H]1CCN(C(=O)CC#N)C[C@@H]1N(C)c1ncnc2[nH]ccc12 [tofacitinib, reference compound]								treatment effect on B and T cell populations [5]: No treatment effect
COc1cc(Nc2cc(CO)[nH]n2)nc(N(C)[C@@H]2C[C@H]3CCC[C@@H](C2)N3S(=O)(=O)N2CC(C#N)C2)n1 [Form II, 1-(((1R,3s,5S)-3-((4-((5-(hydroxymethyl)-1H-pyrazol-3-yl)amino)-6-methoxypyrimidin-2-yl)(methyl)amino)-9-azabicyclo[3.3.1]nonan-9-yl)sulfonyl)azetidine-3-carbonitrile]							about 1.2%	hygroscopicity ([4]; 5% to 90% relative humidity): slightly hygroscopic
